Where two headings read alike, the source gives them in different places.
Experiments:
[1] = system: HCV genotype 1b Con1 replicon cells; assay: Isolation of resistant replicons, genotype 1b; format: cell-based, Hepatitis C virus
Protocol: Selection of resistant replicon cells was performed by growing HCV genotype 1b Con1 and 2a JFH1 replicon cells in medium containing 0.2 or 200 nM and 60 nM or 1 μM of DBPR110, respectively. Medium containing the compound was added to monolayers of HCV1b-neo replicon cells at ˜25% confluence in the presence of 0.2 to 0.4 mg/mL of G418. Replicon cells maintained in the presence of dimethyl sulfoxide (DMSO) were used as a control. After 40 days, total RNA was isolated from both the control replicon cells and homogeneous cell lines containing compound using the TRIzol reagent (Invitrogen, Carlsbad, Calif.) according to the manufacturer's protocol. The RNA was amplified by reverse transcription-PCR (RT-PCR).
To characterize the resistance profile of DBPR110, cell clones resistant to DBPR110 were obtained by culturing HCV genotype 1b replicon cells in the presence of G418 and increasing concentrations of DBPR110 ranging from 50- to 50,000-fold the EC50 value.

[2] = system: HCV1b replicon; assay: Serum shift assay; format: cell-based, Hepatitis C virus; conditions: for EC90 / EC50: Hepatitis C virus; for EC50: read-out: E50
Protocol: (9) Serum shift assay. In the serum shift assay, the inhibitory activity of DBPR110 was determined using replicon 1b in the presence of 10, 20, 30, 40 or 50% fetal bovine serum, or 10 or 40% of extracellular normal human serum.

[3] = Cytotoxicity assay (MTT); format: cell-based; conditions: human, read-out: CC50
Protocol: (4) Cytotoxicity assay. The sensitivity of the cell lines to inhibitors was examined using a 3-(4,5-Dimethylthiazol-2-yl)-2,5-diphenyltetrazolium bromide (MTT) assay. Briefly, Huh-7.5 cells were plated at a density of 1×10^5 cells per well in 12-well plates containing 1 mL of culture medium for 4 h. Serial dilutions of the compounds or DMSO (negative control) were added, and the plates were incubated for an additional 72 h. The MTT reagent was then added to each well, and the plates were incubated for 3 h at 37° C. in a humidified 5% CO2 atmosphere before reading at a wavelength of 563 nm using an ELISA plate reader. All data are presented as the means +/−SD from four independent experiments.

[4] = system: HCV1b reporter replicon pRS-Luc-HCV1bRep; assay: Transient HCV1b reporter replicon time course (viral translation vs RNA synthesis); format: cell-based, Hepatitis C virus
Protocol: (8) RNA transcription and transient replicon assay. The RNA transcripts were synthesized in vitro using ScaI-digested DNAs and the T7 MegaScript transcription kit (Ambion) according to the manufacturer's directions. A transient replicon assay was performed to quantify the compound-mediated inhibition of viral translation (Dears et al., J Virol 79:4599-609 (2005)). RNA transcripts were transfected into Huh-7.5 cells by electroporation, as described previously. See, e.g., Blight et al., J Virol 76:13001-14 (2002). A specific concentration of DBPR110 or the control medium was added to each well, and the cells were assayed to determine the luciferase activity at 4 h and 72 h post-transfection. […] For quantification of the compound-mediated inhibition, the relative luciferase activity derived from the mock-treated cells was set to 100% (Zou et al., Virology 384:242-52 (2009)).
To distinguish inhibition of viral translation from inhibition of RNA synthesis, the reduction rate of reporter gene expression level was monitored as an indicator of the inhibitory activity of DBPR110. […] The luciferase activity was monitored several times over a period of 72 hours posttransfection. […] The luciferase activity was measured at 4, 8, 24, 48, and 72 hours posttransfection.

[5] = system: genotype 2a HCV replicon with NS5A amino acid substitutions; assay: Transient replicon assay, genotype 2a NS5A amino acid substitutions; format: cell-based, Hepatitis C virus; conditions: for EC50 / EC90: Hepatitis C virus

For `O=C(N[C@@H](C(=O)N1CCC[C@H]1c1ncc(-c2ccc(-c3ccc(-c4cnc([C@@H]5CCCN5C(=O)[C@H](NC(=O)C5CC5)c5ccccc5)s4)cc3)cc2)s1)c1ccccc1)C1CC1` [DBPR110], which “fold more resistant than parental cells” value ([1]; DBPR110-resistant cells (DBPR110R), genotype 1b) is on record?
Its value is “greater than 14,000 fold”.

And the EC50 ([1]; Hepatitis C virus)?
Its EC50 is greater than 55 nM.

And the “Shift fold (EC50)” value ([2]; 10% FBS)?
Its value is 1.0 fold.

What about the “Shift fold (EC90)” value ([2]; 10% FBS) of the same compound?
The value was 1.0 fold.

And the “Shift fold (EC50)” value ([2]; 10% NHS (normal human serum))?
The value was 1.0 fold.

What about the “Shift fold (EC90)” value ([2]; 10% NHS (normal human serum)) of the same compound?
Its value is 1.0 fold.

And the “Shift fold (EC50)” value ([2]; 20% FBS)?
The value was 1.9 fold.

What about the “Shift fold (EC90)” value ([2]; 20% FBS) of the same compound?
The value was 2.6 fold.

What about the “Shift fold (EC50)” value ([2]; 30% FBS) of the same compound?
The value was 1.8 fold.

What about the “Shift fold (EC90)” value ([2]; 30% FBS) of the same compound?
Its value is 2.3 fold.

And the “Shift fold (EC50)” value ([2]; 40% FBS)?
Its value is 3.1 fold.

What about the “Shift fold (EC90)” value ([2]; 40% FBS) of the same compound?
Its value is 3.8 fold.

And the “Shift fold (EC50)” value ([2]; 40% NHS (normal human serum))?
Its value is 6.3 fold.

And the “Shift fold (EC90)” value ([2]; 40% NHS (normal human serum))?
Its value is 14.1 fold.

What about the “Shift fold (EC50)” value ([2]; 50% FBS) of the same compound?
The value was 5.0 fold.

And the “Shift fold (EC90)” value ([2]; 50% FBS)?
Its value is 4.5 fold.

What about the EC90 ([2]; 10% FBS) of the same compound?
Its EC90 is 0.0093 ± 0.0034 nM.

And the EC50 ([2]; 10% FBS)?
The EC50 was 0.0043 ± 0.0008 nM.

And the EC90 ([2]; 10% NHS (normal human serum))?
Its EC90 is 0.0416 ± 0.0013 nM.

What about the EC50 ([2]; 10% NHS (normal human serum)) of the same compound?
Its EC50 is 0.0335 ± 0.0004 nM.

And the EC90 ([2]; 20% FBS)?
The EC90 was 0.0238 ± 0.011 nM.

What about the EC50 ([2]; 20% FBS) of the same compound?
The EC50 was 0.0081 ± 0.0016 nM.

What about the EC90 ([2]; 30% FBS) of the same compound?
Its EC90 is 0.0216 ± 0.017 nM.

What about the EC50 ([2]; 30% FBS) of the same compound?
Its EC50 is 0.0079 ± 0.0009 nM.

What about the EC90 ([2]; 40% FBS) of the same compound?
The EC90 was 0.0351 ± 0.0074 nM.

And the EC50 ([2]; 40% FBS)?
Its EC50 is 0.0132 ± 0.0017 nM.

And the EC90 ([2]; 40% NHS (normal human serum))?
The EC90 was 0.588 ± 0.0459 nM.

What about the EC50 ([2]; 40% NHS (normal human serum)) of the same compound?
The EC50 was 0.211 ± 0.0063 nM.

What about the EC90 ([2]; 50% FBS) of the same compound?
The EC90 was 0.0419 ± 0.0072 nM.

And the EC50 ([2]; 50% FBS)?
Its EC50 is 0.0215 ± 0.01 nM.

What about the CC50 at 72 h ([3]; Genotype 2a, JFH1) of the same compound?
The CC50 at 72 h was greater than 50000 nM.

What about the CC50 at 72 h ([3]; HCV-1b replicon cell lines, single agent) of the same compound?
The CC50 at 72 h was greater than 50 nM.

And the CC50 at 72 h ([3]; Huh-7.5 cells, Genotype 1b, Con1)?
Its CC50 at 72 h is greater than 50000 nM.

And the CC50 at 72 h ([3]; Infectious HCV, Genotype 2a, JFH1)?
Its CC50 at 72 h is greater than 50000 nM.

What about the “effect on the Rluc signals” value ([4]; 4 and 8 hours posttransfection (viral translation)) of the same compound?
Its value is “minimal effect”.

And the “effect on the Rluc signals” value ([4]; 24, 48, and 72 hours posttransfection (RNA replication), P<0.001)?
Its value is “significantly reduced”.

And the EC50 ([5]; genotype 2a NS5A P58L)?
The EC50 was 53 nM.

What about the EC90 ([5]; genotype 2a NS5A P58L) of the same compound?
The EC90 was 89.3 nM.

What about the EC50 ([5]; genotype 2a NS5A Parental) of the same compound?
The EC50 was 0.25 ± 0.032 nM.

And the EC90 ([5]; genotype 2a NS5A Parental)?
Its EC90 is 0.592 ± 0.07 nM.

And the EC50 ([5]; genotype 2a NS5A T24A)?
The EC50 was 16.2 nM.

And the EC90 ([5]; genotype 2a NS5A T24A)?
Its EC90 is 63.5 nM.

And the EC50 ([5]; genotype 2a NS5A Y93H)?
The EC50 was 760 nM.

And the EC90 ([5]; genotype 2a NS5A Y93H)?
The EC90 was greater than 5000 nM.

What about the EC50 ([5]; genotype 2a NS5A Y93N) of the same compound?
The EC50 was 51.8 nM.

What about the EC90 ([5]; genotype 2a NS5A Y93N) of the same compound?
The EC90 was 85.2 nM.

What about the “Fold resistance (EC50)” value ([5]; genotype 2a NS5A P58L) of the same compound?
Its value is 212 fold.

What about the “Fold resistance (EC90)” value ([5]; genotype 2a NS5A P58L) of the same compound?
The value was 151 fold.

What about the “Fold resistance (EC50)” value ([5]; genotype 2a NS5A Parental) of the same compound?
The value was 1 fold.

And the “Fold resistance (EC90)” value ([5]; genotype 2a NS5A Parental)?
Its value is 1 fold.

What about the “Fold resistance (EC50)” value ([5]; genotype 2a NS5A T24A) of the same compound?
Its value is 65 fold.

What about the “Fold resistance (EC90)” value ([5]; genotype 2a NS5A T24A) of the same compound?
Its value is 107 fold.

And the “Fold resistance (EC50)” value ([5]; genotype 2a NS5A Y93H)?
The value was 3,041 fold.

And the “Fold resistance (EC90)” value ([5]; genotype 2a NS5A Y93H)?
Its value is >8,446 fold.

And the “Fold resistance (EC50)” value ([5]; genotype 2a NS5A Y93N)?
The value was 207 fold.

And the “Fold resistance (EC90)” value ([5]; genotype 2a NS5A Y93N)?
The value was 144 fold.

— patent US20140127158A1, “COMBINATION THERAPY FOR HEPATITIS C VIRUS INFECTION” (National Health Research Institute, priority 2012, published 2014)
